From paper PMC8402609, “Guiding the Immune Response to a Conserved Epitope in MSP2, an Intrinsically Disordered Malaria Vaccine Candidate” (Vaccines, 2021)
Where a SMILES comes first, the peptide text is derived from it. Bridges are numbered along the chain shown (N, C = ends). Roman numbers before positions name the chains, in order.

How the values were obtained:
[1] = test system: FC27 (D10 clone) merozoites; test: Merozoite ELISA with pooled mouse sera, FC27 merozoites; type: in vivo, P. falciparum; conditions: pooled sera of immunised mice, two-fold dilutions from 1:500; merozoites 1 × 10^7/well; OD 450 nm; rank order in words
Protocol: (§1) The reactivity of mouse polyclonal antibodies with merozoites was determined by ELISA using merozoites from both the 3D7 and FC27 (D10 clone) strains of P. falciparum. The parasites were cultured in human erythrocytes at a haematocrit of 3% in RPMI media supplemented with […]. Viable merozoites were isolated as described previously. Highly synchronised late-stage schizonts were magnet-purified via a MACS magnet separation column (Miltenyi Biotec, Macquarie Park, Australia) and treated with E64 protease inhibitor (ThermoFisher Scientific, Scoresby, Australia) until mature merozoites were formed. Merozoites were released forcing them through a 1.2 µm filter.
Purified whole merozoites were resuspended in PBS supplemented with a cocktail of protease inhibitors (Roche, Castle Hill, Australia). Isolated merozoites were used to coat Nunc Maxisorp™ plates at 1 × 10^7/well and incubated overnight at 4 °C. The plates were then blocked with 1% casein in PBS at 37 °C for 2 h (or overnight at 4 °C). Pooled sera samples were added to wells at two-fold serial dilution in duplicate with a starting dilution of 1:500 and incubated at RT for 1 h. The plates were further incubated with HRP-conjugated goat anti-mouse IgG antibody diluted at 1:1000 in 0.1% casein in PBS at RT for 1 h. The plates were washed six times with PBS between each incubation step. […] The OD was measured at 450 nm. […]

3D7 merozoites = test: Merozoite ELISA with pooled mouse sera, 3D7 merozoites; type: in vivo, P. falciparum; conditions: pooled sera of immunised mice, two-fold dilutions from 1:500; merozoites 1 × 10^7/well; OD 450 nm; rank order in words
Protocol: as §1
Purified whole merozoites were resuspended in PBS supplemented with a cocktail of protease inhibitors (Roche, Castle Hill, Australia). Isolated merozoites were used to coat Nunc Maxisorp™ plates at 1 × 10^7/well and incubated overnight at 4 °C. The plates were then blocked with 1% casein in PBS at 37 °C for 2 h (or overnight at 4 °C). Pooled sera samples were added to wells at two-fold serial dilution in duplicate with a starting dilution of 1:500 and incubated at RT for 1 h. The plates were further incubated with HRP-conjugated goat anti-mouse IgG antibody diluted at 1:1000 in 0.1% casein in PBS at RT for 1 h. The plates were washed six times with PBS between each incubation step. Finally, 3,3′,5,5′-tetramethylbenzidine (TMB) substrate (Thermo Fisher Scientific, Scoresby, Australia) was added to the wells for the development of colour for 15 min and the reaction was stopped with 1 M sulfuric acid. The OD was measured at 450 nm.
The ability to induce an immune response that can recognise parasite MSP2 is essential in the design of an MSP2-based peptide vaccine. We isolated merozoites from both 3D7 and FC27 (D10 clone) strains of P. falciparum, coated them on ELISA plates and probed them with sera from the immunised mice (Figure 6). mAb 4D11 and the MSP2 mix pre-bleed were also included as positive and negative controls, respectively.

[2] = test system: biotinylated 13-residue peptides (A-I) spanning the C-terminal region of MSP2; test: Fine specificity of antisera by peptide array ELISA (peptides A-I); type: in vivo, mouse; conditions: individual sera of mice immunised with peptide-KLH conjugate or MSP2 mix, diluted 1:1000; indirect ELISA; peptides C-D span 9H4 epitope, E-G span 4D11 epitope
Protocol: Peptide was conjugated to maleimide-activated KLH (Sigma-Aldrich) following the manufacturer’s protocol. Briefly, 1 mg of each peptide was mixed with 1 mg KLH in the provided buffer for a 200-fold molar excess of peptide to carrier protein. The reaction mixture was degassed under nitrogen and mixed at room temperature (RT) for 2 h. Any unreacted peptide was removed by dialysis against PBS using a 10 kDa cut-off membrane. The extent of conjugation was determined using Ellman’s reagent. Peptide-KLH conjugate stock solution was stored at 4 °C until further use. Prior to immunisation, peptide-KLH conjugates were diluted to 1 mg/mL in PBS and formulated with Montanide ISA720 at an antigen:adjuvant ratio of 3:7 and a final concentration of 0.3 mg/mL. The 3D7 + FC27 MSP2 mix was formulated using 0.15 mg/mL of each allelic form. Female C57BL/6 mice (n = 6 per group) were inoculated subcutaneously with 100 µL containing 30 µg of antigen at weeks 0, 4 and 8, then euthanised at week 10. Sera were collected and stored at −80 °C.
(§2) To determine peptide-KLH binding to 4D11 and 9H4, Maxisorp 96-well microtitre plates (Nunc, Rochester, NY, USA) were coated overnight at 4 °C with 2 µg/mL peptide-KLH in PBS. The plates were blocked with 1% BSA in PBS for 1 h before adding 100 µL of 4D11 and 9H4 IgG in eleven half log10 serial dilutions starting from stock at 1 µg/mL. After 1 h incubation at 4 °C and washing, antigen-bound antibodies were detected with goat anti-mouse IgG (1:2000 dilution) and freshly prepared 2,2-azinobis(3-ethylbenzthiazolinesulfonic acid (ABTS) substrate (1 mm) in citric acid buffer, pH 4.2, containing […]. The absorbance was read at 405 nm using a microplate reader. For determination of peptide-specific antibody titres, peptide-BSA conjugate was coated on the plate at 2 µg/mL. Individual mouse sera were added at a starting dilution of 1000-fold with six half log10 serial dilutions. Endpoint titres were taken as the x-axis intercept of the dilution curve at an absorbance value of three standard deviations (s.d.) greater than OD405 for naïve mouse serum. The fine specificities of the antisera were determined by ELISA using an array of nine biotinylated 13-residue peptides (A-I), which overlap by 2 or 3 residues and spanned the C-terminal region of MSP2 [11, 13]. Maxisorp 96-well microtitre plates (Nunc) were coated overnight at 4 °C with 1 µg/mL streptavidin in PBS. The plates were blocked with 1% BSA in PBS for 2 h before adding 1:500 biotinylated peptides. Individual sera samples were diluted 1:1000 in blocking solution before addition to the peptide array. Antibody was detected with the same protocol as mentioned above.
To characterise the response against these dimeric peptides further, the specificity of the induced antibodies was determined by indirect ELISA using an array of nine biotinylated peptides that spanned the epitopes recognised by the 4D11 and 9H4 mAbs (peptides A-I) (Table 3). Peptides C and D spanned the 9H4 epitope, whilst peptides E to G spanned the 4D11 epitope. […] However, the response against MSP2 was largely dominated by a single mouse in the group.

4D11 IgG = test: ELISA binding of 4D11 IgG against BSA-peptide conjugates; set-up: species or system mouse; conditions: peptide maleimide-conjugated to BSA coated on plate
Protocol: as §2, with “To determine peptide-KLH binding to 4D11 and 9H4, Maxisorp 96-well microtitre plates (Nunc, Rochester, NY, USA) were coated overnight at 4 °C with 2 µg/mL peptide-KLH in PBS.” left out, “Maxisorp 96-well microtitre plates (Nunc) were coated overnight at 4 °C with 1 µg/mL streptavidin in PBS. The plates were blocked with 1% BSA in PBS for 2 h before adding 1:500 biotinylated peptides. Individual sera samples were diluted 1:1000 in blocking solution before addition to the peptide array.” left out
Anti-peptide antibody titres in the sera of immunised mice were determined using ELISA plates coated with the corresponding peptide-bovine serum albumin (BSA) conjugates. […]

Row | Compound | reactivity of pooled sera with FC27 merozoites [1] | reactivity of pooled sera with 3D7 merozoites (3D7 merozoites) | specificity of the induced antibodies (peptide array A-I) [2] | 4D11 IgG binding to BSA-peptide conjugate (4D11 IgG)
1 | CC(=O)N[C@@H](CC(N)=O)C(=O)N[C@@H](CCCCN)C(=O)N[C@@H](CCC(=O)O)C(=O)N[C@@H](CC(N)=O)C(=O)N[C@@H](CSSC[C@H](NC(=O)[C@H](CC(N)=O)NC(=O)[C@H](CCC(=O)O)NC(=O)[C@H](CCCCN)NC(=O)[C@H](CC(N)=O)NC(C)=O)C(=O)NCC(=O)N[C@@H](C)C(=O)N[C@@H](C)C(=O)N[C@@H](CS)C(N)=O)C(=O)NCC(=O)N[C@@H](C)C(=O)N[C@@H](C)C(N)=O [Peptide D1] (I: Ac-NKENCGAAC-NH2 / II: Ac-NKENCGAA-NH2; disulfide I:5-II:5) | weak reactivity | weak reactivity | almost exclusively directed to the 4D11 epitope | 
2 | SKWICANRSVCPI [non-relevant peptide maleimide-conjugated to BSA, linker control] |  |  |  | no 4D11 IgG binding
